Data set [1] deals with luciferase expression in the liver. Description: In vivo luciferase mRNA expression in mouse liver with lipid nanoparticle formulations. More on the design: species or system C57BL/6 mice. The settings on record: tail vein injection, liver 4 hours after administration, FLuc mRNA; for Liver Luc @ 0.3 mg/kg dose / Liver Luc @ 0.3 mg/kg (ng luc/g liver): 0.3 mg mRNA/kg; for Liver Luc @ 0.3 mg/kg dose / Liver Luc @ 1.0 mg/kg dose: LNP 50% cationic lipid/10% DSPC/38.5% cholesterol/1.5% PEG-DMG; for Liver Luc @ 1.0 mg/kg dose / Liver Luc @ 1.0 mg/kg (ng luc/g liver): 1.0 mg mRNA/kg; for Liver Luc @ 0.3 mg/kg (ng luc/g liver) / Liver Luc @ 1.0 mg/kg (ng luc/g liver): LNP 50% cationic lipid/10% DSPC/38.5% cholesterol/1.5% PEG-DMA. As to the method: Cationic lipid (MC3), DSPC, cholesterol and PEG-lipid were solubilized in ethanol at a molar ratio of 50:10:38.5:1.5. Lipid nanoparticles (LNP) were prepared at a total lipid to mRNA weight ratio of approximately 10:1 to 30:1. Briefly, the mRNA was diluted to 0.2 mg/mL in 10 to 50 mM citrate buffer, pH 4. Syringe pumps were used to mix the ethanolic lipid solution with the mRNA aqueous solution at a ratio of about 1:5 to 1:3 (vol/vol) with total flow rates above 15 ml/min. The ethanol was then removed and the external buffer replaced with PBS by dialysis. Finally, the lipid nanoparticles were filtered through a 0.2 μm pore sterile filter. Lipid nanoparticle particle size was 70-90 nm diameter as determined by quasi-elastic light scattering using a Nicomp 370 submicron particle sizer (Santa Barbara, Calif.).
Studies were performed in 6-8 week old female C57BL/6 mice (Charles River) according to guidelines established by an institutional animal care committee (ACC) and the Canadian Council on Animal Care (CCAC). Varying doses of mRNA-lipid nanoparticle were systemically administered by tail vein injection and animals euthanized at specific time points (1, 2, 4, 8 and 24 hrs) post-administration. Liver and spleen were collected in pre-weighted tubes, weights determined, immediately snap frozen in liquid nitrogen and stored at −80° C. until processing for analysis.
For liver, approximately 50 mg was dissected for analyses in a 2 mL FastPrep tubes (MP Biomedicals, Solon Ohio). ¼″ ceramic sphere (MP Biomedicals) was added to each tube and 500 μL of Glo Lysis Buffer—GLB (Promega, Madison Wis.) equilibrated to room temperature was added to liver tissue. Liver tissues were homogenized with the FastPrep24 instrument (MP Biomedicals) at 2×6.0 m/s for 15 seconds. Homogenate was incubated at room temperature for 5 minutes prior to a 1:4 dilution in GLB and assessed using SteadyGlo Luciferase assay system (Promega). Specifically, 50 μL of diluted tissue homogenate was reacted with 50 μL of SteadyGlo substrate, shaken for 10 seconds followed by 5 minute incubation and then quantitated using a CentroXS^3 LB 960 luminometer (Berthold Technologies, Germany). The amount of protein assayed was determined by using the BCA protein assay kit (Pierce, Rockford Ill.). Relative luminescence units (RLU) were then normalized to total ug protein assayed. To convert RLU to ng luciferase a standard curve was generated with QuantiLum Recombinant Luciferase (Promega). Based in the data provided in FIG. 1, the four-hour time point was chosen for efficacy evaluation of the lipid formulations (see Example 29).
The FLuc mRNA (L-6107) from Trilink Biotechnologies will express a luciferase protein, originally isolated from the firefly, Photinus pyralis. FLuc is commonly used in mammalian cell culture to measure both gene expression and cell viability. It emits bioluminescence in the presence of the substrate, luciferin. This capped and polyadenylated mRNA is fully substituted with 5-methylcytidine and pseudouridine.
The cationic lipids shown in Table 2 have previously been tested with nucleic acids. For comparative purposes, these lipids were also used to formulate lipid nanoparticles containing the FLuc mRNA (L-6107) using an in line mixing method, as described in example 28 and in PCT/US10/22614, which is hereby incorporated by reference in its entirety. […] Relative activity was determined by measuring luciferase expression in the liver 4 hours following administration via tail vein injection as described in example 28. The activity was compared at a dose of 0.3 and 1.0 mg mRNA/kg and expressed as ng luciferase/g liver measured 4 hours after administration, as described in Example 28. […]

Data set [2] in a line: pKa of formulated cationic lipids in lipid nanoparticles (TNS fluorescence assay). The data set is classed as physicochemical. The conditions noted are these: probe 2-(p-toluidino)-6-napthalene sulfonic acid (TNS), 1 µM final; formulated in LNP cationic lipid/DSPC/cholesterol/PEG-lipid 50/10/38.5/1.5 mol %; pH of half-maximal TNS fluorescence. As to the method:
As described elsewhere, the pKa of formulated cationic lipids is correlated with the effectiveness of LNPs for delivery of nucleic acids (see Jayaraman et al, Angewandte Chemie, International Edition (2012), 51(34), 8529-8533; Semple et al, Nature Biotechnology 28, 172-176 (2010)). The preferred range of pKa is ˜5 to ˜7. […] Lipid nanoparticles comprising of cationic lipid/DSPC/cholesterol/PEG-lipid (50/10/38.5/1.5 mol %) in PBS at a concentration of 0.4 mM total lipid are prepared using the in-line process as described in Example 28. TNS was prepared as a 100 μM stock solution in distilled water. Vesicles were diluted to 24 μM lipid in 2 mL of buffered solutions containing, 10 mM HEPES, 10 mM MES, 10 mM ammonium acetate, 130 mM NaCl, where the pH ranged from 2.5 to 11. An aliquot of the TNS solution was added to give a final concentration of 1 μM and following vortex mixing fluorescence intensity was measured at room temperature in a SLM Aminco Series 2 Luminescence Spectrophotometer using excitation and emission wavelengths of 321 nm and 445 nm. A sigmoidal best fit analysis was applied to the fluorescence data and the pKa was measured as the pH giving rise to half-maximal fluorescence intensity (see FIG. 2).

Regarding `CCCCC/C=C\C/C=C\CCCCCCCCC1(CCCCCCCC/C=C\C/C=C\CCCCC)OC[C@@H](CCN(C)C)O1` [XTC2, reference compound], in data set [1], the “Liver Luc @ 0.3 mg/kg dose” value was 80 ± 28 ng luciferase/g liver and the “Liver Luc @ 1.0 mg/kg dose” value was found to be 237 ± 99 ng luciferase/g liver.
Take `CCCCC/C=C\C/C=C\CCCCCCCCC(CCCCCCCC/C=C\C/C=C\CCCCC)C(=O)N(CCCCCCCCC)CCCN(C)C` [Compound 16]: in data set [1], the “Liver Luc @ 0.3 mg/kg (ng luc/g liver)” value stood at 231 ± 100 ng luc/g liver and the “Liver Luc @ 1.0 mg/kg (ng luc/g liver)” value is listed as 1185 ± 838 ng luc/g liver. The compound further gave a pKa in data set [2] of 6.37.
For `CCCCCCCCC(=O)N(CCCN(C)C)C(CCCCCCCCCOC(=O)C(CCCC)CCCCCC)CCCCCCCCCOC(=O)C(CCCC)CCCCCC` (centres unmarked) [Compound 17], in that order: 837 ± 260 ng luc/g liver, 6703 ± 689 ng luc/g liver and 6.29.
In the case of `CCCCC/C=C\C/C=C\CCCCCCCCC(CCCCCCCC/C=C\C/C=C\CCCCC)OC(=O)CCCCN(C)C` [MC4, reference compound], the “Liver Luc @ 0.3 mg/kg dose” value in data set [1] came to 41 ± 10 ng luciferase/g liver.
In the case of `CCCCC/C=C\C/C=C\CCCCCCCCC(CCCCCCCC/C=C\C/C=C\CCCCC)N(C)CCN(C)C` [B, reference compound], in data set [1], the “Liver Luc @ 0.3 mg/kg (ng luc/g liver)” value was 95 ± 41 ng luc/g liver and the “Liver Luc @ 1.0 mg/kg (ng luc/g liver)” value came out at 1131 ± 384 ng luc/g liver. The pKa in data set [2] is 6.17.
On the same counts, the results for `CCCCC/C=C\C/C=C\CCCCCCCCC(CCCCCCCC/C=C\C/C=C\CCCCC)N(CCCN(C)C)C(=O)C(CC)CCCCC` (centres unmarked) [Compound 7] are 833 ± 401 ng luc/g liver, 8859 ± 780 ng luc/g liver and 5.93.
For `CCCCCCC(CCCC)COC(=O)CCCCCCCCC(CCCCCCCCC(=O)OCC(CCCC)CCCCCC)N(CCCN(C)C)C(=O)C(CC)CCCCC` (centres unmarked) [Compound 35], in that order: 1083 ± 350 ng luc/g liver, 8554 ± 4587 ng luc/g liver and 5.97.
`CCCCC/C=C\C/C=C\CCCCCCCCC(CCCCCCCC/C=C\C/C=C\CCCCC)NCCCN(C)C` [A, reference compound] registered a pKa in data set [2] of 7.05.
As for `CCCCCC/C=C\C/C=C\COC(=O)CCCCCCCC(CCCCCCCC(=O)OC/C=C\CCCCCC)OC(=O)CCCN(C)C` (centres unmarked) [319 (2% PEG), reference compound], in data set [1], the “Liver Luc @ 0.3 mg/kg dose” value is 258 ± 67 ng luciferase/g liver and the “Liver Luc @ 1.0 mg/kg dose” value amounted to 681 ± 203 ng luciferase/g liver.
`CCCCCCCC(=O)N(CCCN(C)C)C(CCCCCCCCC(=O)OC(CCCCCC)CCCCCC)CCCCCCCCC(=O)OC(CCCCCC)CCCCCC` [Compound 10]: in data set [1], the “Liver Luc @ 0.3 mg/kg (ng luc/g liver)” value worked out at 2379 ± 93 ng luc/g liver and the “Liver Luc @ 1.0 mg/kg (ng luc/g liver)” value is 26181 ± 2900 ng luc/g liver. Also, in data set [2], the pKa was 6.16.
With `CCCCCCCCC(CCCCCC)COC(=O)CCCCCCCCC(CCCCCCCCC(=O)OCC(CCCCCC)CCCCCCCC)N(CCCN(C)C)C(=O)CCCCCCC` (centres unmarked) [Compound 12], in data set [1], the “Liver Luc @ 0.3 mg/kg (ng luc/g liver)” value was 3336 ± 1394 ng luc/g liver and the “Liver Luc @ 1.0 mg/kg (ng luc/g liver)” value was determined as 13577 ± 1948 ng luc/g liver. Besides, the pKa in data set [2] was found to be 6.21.
On the same counts, the results for `CCCCC/C=C\C/C=C\CCCCCCCCC(CCCCCCCC/C=C\C/C=C\CCCCC)N(CCCN(C)C)C(=O)C(CCCCCC)CCCCCCCC` (centres unmarked) [Compound 8] are 105 ± 98 ng luc/g liver, 1238 ± 153 ng luc/g liver and 5.35.
For `CCCCCCCCC(=O)N(CCCN(C)C)C(CCCCCCCCCOC(=O)C(CCCCCC)CCCCCCCC)CCCCCCCCCOC(=O)C(CCCCCC)CCCCCCCC` (centres unmarked) [Compound 36], in that order: 541 ± 91 ng luc/g liver, 4736 ± 980 ng luc/g liver and 6.13.
Consider `CCCCC/C=C\C/C=C\CCCCCCCCOCC(CN(C)C)OCCCCCCCC/C=C\C/C=C\CCCCC` (centres unmarked) [DLinDMA, reference compound], for which, in data set [1], the “Liver Luc @ 0.3 mg/kg dose” value worked out at 13 ± 3 ng luciferase/g liver and the “Liver Luc @ 1.0 mg/kg dose” value came out at 67 ± 20 ng luciferase/g liver.
`CCCCC/C=C\C/C=C\CCCCCCCCC(CCCCCCCC/C=C\C/C=C\CCCCC)N(CCCN(C)C)C(=O)CCCCCCCC(=O)OCC` [Compound 37] returned a pKa in data set [2] of 5.61.
With `CCCCC/C=C\C/C=C\CCCCCCCCC(CCCCCCCC/C=C\C/C=C\CCCCC)OC(=O)CCN(C)C` [MC2, reference compound], the “Liver Luc @ 0.3 mg/kg dose” value in data set [1] amounted to 4 ± 1 ng luciferase/g liver.
In the case of `CCCCC(CC)C(=O)OCCCCCCCCCC(CCCCCCCCCOC(=O)C(CC)CCCC)OC(=O)CCCN(C)C` (centres unmarked) [Compound 137, reference compound], in data set [1], the “Liver Luc @ 0.3 mg/kg dose” value came out at 281 ± 203 ng luciferase/g liver and the “Liver Luc @ 1.0 mg/kg dose” value stood at 588 ± 303 ng luciferase/g liver.
For the compound `CCCCC/C=C\C/C=C\CCCCCCCCC(CCCCCCCC/C=C\C/C=C\CCCCC)N(CCCN(C)C)C(=O)CCCCCCC/C=C\C/C=C\CCCCC` [Compound 6], in data set [1], the “Liver Luc @ 0.3 mg/kg (ng luc/g liver)” value is on record as 19 ± 4 ng luc/g liver and the “Liver Luc @ 1.0 mg/kg (ng luc/g liver)” value is 211 ± 119 ng luc/g liver. The compound further registered a pKa in data set [2] of 6.14.
For `CCCCCCCCC(CCCCCC)COC(=O)CCCCCC(CCCCCC(=O)OCC(CCCCCC)CCCCCCCC)N(CCCN(C)C)C(=O)CCCCCCC` (centres unmarked) [Compound 39], in that order: 779 ± 82 ng luc/g liver, 5180 ± 2116 ng luc/g liver and 6.45.
For `CCCCCCCCC(CCCCCC)COC(=O)CCCCCC(CCCCCC(=O)OCC(CCCCCC)CCCCCCCC)N(CCCN(C)C)C(=O)CCCCCCCC(=O)OCC` (centres unmarked) [Compound 40], in that order: 753 ± 156 ng luc/g liver, 2203 ± 1555 ng luc/g liver and 6.57.
Consider `CCCCCCCCCCC(CCCCCCCC)COC(=O)CCCCCC(CCCCCC(=O)OCC(CCCCCCCC)CCCCCCCCCC)N(CCCN(C)C)C(=O)CCCCCCCC` (centres unmarked) [Compound 41], for which, in data set [1], the “Liver Luc @ 0.3 mg/kg (ng luc/g liver)” value is 832 ± 298 ng luc/g liver and the “Liver Luc @ 1.0 mg/kg (ng luc/g liver)” value is listed as 7437 ± 1612 ng luc/g liver.

The values above are taken from US20220204439A1, “LIPIDS AND LIPID NANOPARTICLE FORMULATIONS FOR DELIVERY OF NUCLEIC ACIDS” (Acuitas Therapeutics, Inc., priority 2015, published 2022).
